Data on six molecules can be found in PubChem BioAssay (NCI).

Test systems include NCI/ADR-RES ovarian; SF-268 CNS; HCT-116 colon; UACC-257 melanoma; HOP-62 NSCLC; SK-MEL-2 melanoma; A498 renal; HT29 colon; MCF7 breast; SNB-19 CNS.
Holding throughout (experiment): DTP human tumour cell line panel, 48 h

Molecules are shown by their SMILES.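 Exposure lasted 48 hours, with cells grown in 96-well plates and compounds tested at five concentrations. Here, GI50 denotes the concentration required for 50% inhibition of growth. At the TGI there is no net growth.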

Broadly, the GI50 is the concentration giving 50% growth inhibition. The TGI is the concentration giving total growth inhibition. As to `Cc1noc(C)c1-c1cc(O)cc(C(O)c2ccccc2)c1` (centres undefined), the GI50 in the test with NCI/ADR-RES ovarian is 6.32 µM; with SF-268 CNS it was 39.3 µM; with HCT-116 colon it was 7.08 µM; with UACC-257 melanoma, 4.66 µM; with HOP-62 NSCLC, 4.89 µM; with SK-MEL-2 melanoma, 23.5 µM. Besides, the GI50 in the test on A498 renal was 2.6 µM; in the test on HT29 colon, 4.54 µM; in the test with MCF7 breast, 1.7 µM; in the test with SNB-19 CNS, 5.69 µM. The TGI in the test with NCI/ADR-RES ovarian, in the test with SF-268 CNS, in the test with HCT-116 colon, in the test on UACC-257 melanoma, in the test with HOP-62 NSCLC and in the test on SK-MEL-2 melanoma was above 100 µM in each case. The TGI in the test with A498 renal is 20.3 µM; in the test with HT29 colon, above 100 µM; in the test on MCF7 breast it was above 100 µM; in the test with SNB-19 CNS, above 100 µM.

Turning to `O=C(Nc1ccc(Cl)cc1F)c1cc(I)ccc1O`, the GI50 is 2.02 µM in the test on NCI/ADR-RES ovarian; 1.67 µM with SF-268 CNS; 1.22 µM in the test on HCT-116 colon; 0.812 µM with UACC-257 melanoma; 2.35 µM with HOP-62 NSCLC; 0.836 µM with SK-MEL-2 melanoma. In addition, the GI50 in the test on A498 renal is 0.269 µM; in the test with HT29 colon, 3.57 µM; in the test on MCF7 breast it was 2.38 µM; in the test with SNB-19 CNS, 0.714 µM. For the same molecule, the TGI came to 8.68 µM in the test with NCI/ADR-RES ovarian; 15.1 µM with SF-268 CNS; 2.87 µM in the test on HCT-116 colon; 6.64 µM in the test on UACC-257 melanoma; 8.04 µM in the test on HOP-62 NSCLC; 4.25 µM in the test with SK-MEL-2 melanoma. In addition, the TGI in the test with A498 renal is 0.846 µM; with HT29 colon, above 100 µM; with MCF7 breast it was 18.5 µM; with SNB-19 CNS, 92 µM.

`O=C(CN1CCN(c2ccc(Cl)cc2)CC1)N1CCN(c2nnc(-c3ccc(Cl)cc3)c(-c3ccc(Cl)cc3)n2)CC1`: the GI50 with NCI/ADR-RES ovarian is 34 µM; in the test with SF-268 CNS, 34 µM; in the test with HCT-116 colon it was 7.84 µM; in the test on UACC-257 melanoma, above 100 µM; in the test on HOP-62 NSCLC, 40.9 µM; with SK-MEL-2 melanoma, 51.5 µM. In addition, the GI50 was 43.1 µM in the test with A498 renal, 9.85 µM with HT29 colon, 8.9 µM with MCF7 breast and 19.1 µM in the test with SNB-19 CNS. The TGI in the test with NCI/ADR-RES ovarian, in the test with SF-268 CNS, in the test on HCT-116 colon, in the test with UACC-257 melanoma, in the test with HOP-62 NSCLC and in the test on SK-MEL-2 melanoma was above 100 µM throughout. The TGI in the test on A498 renal is above 100 µM; in the test on HT29 colon, above 100 µM; in the test with MCF7 breast it was above 100 µM; with SNB-19 CNS, 63.5 µM.

For `COc1ccc(-c2nn(-c3cccc(NC(=O)c4ccc5c(c4)OCCO5)c3)cc2-c2ccncc2)cc1Cl`, the GI50 was 1.01 µM with NCI/ADR-RES ovarian; 3.75 µM in the test on SF-268 CNS; 2.03 µM with HCT-116 colon; 3.17 µM with UACC-257 melanoma; 2.94 µM with HOP-62 NSCLC; 2.36 µM in the test on SK-MEL-2 melanoma. Also, the 50% growth inhibitory concentration (GI50) is 0.422 µM with A498 renal, 1.88 µM in the test with HT29 colon, 1.99 µM in the test with MCF7 breast and 4.63 µM in the test with SNB-19 CNS. Also, the TGI with NCI/ADR-RES ovarian stood at 4.74 µM; in the test with SF-268 CNS, 34 µM; with HCT-116 colon, 14.5 µM; in the test with UACC-257 melanoma, 20.5 µM; in the test with HOP-62 NSCLC, 20.8 µM; in the test on SK-MEL-2 melanoma it was 7.15 µM. Moreover, the TGI with A498 renal was determined as 3.45 µM; with HT29 colon it was 12.1 µM; in the test with MCF7 breast, 10.9 µM; in the test on SNB-19 CNS it was 98.1 µM.

As to `CC(=O)O[C@H](C[C@H](C(C)C)N(C)C(=O)[C@@H](NC(=O)[C@H]1CCCCN1C)C(C)C)c1nc(C(=O)N[C@@H](Cc2ccccc2)C[C@H](C)C(=O)O)c(C(C)C)s1`, the 50% growth inhibitory concentration (GI50) in the test on NCI/ADR-RES ovarian was 0.0691 µM; in the test on SF-268 CNS, below 0.00333 µM; with HCT-116 colon, below 0.00333 µM; in the test with UACC-257 melanoma it was above 33.3 µM; with HOP-62 NSCLC, below 0.00333 µM; in the test with SK-MEL-2 melanoma it was below 0.00333 µM. Also, the GI50 in the test with A498 renal, with HT29 colon, in the test with MCF7 breast and in the test with SNB-19 CNS was below 0.00333 µM throughout. Also, the TGI in the test on SF-268 CNS is above 33.3 µM; in the test on HCT-116 colon it was 0.773 µM; in the test on UACC-257 melanoma, above 33.3 µM; in the test on HOP-62 NSCLC, above 33.3 µM; with SK-MEL-2 melanoma, 19.2 µM; with A498 renal it was below 0.00333 µM. In addition, the TGI with HT29 colon, with MCF7 breast and in the test with SNB-19 CNS was above 33.3 µM each time.

On to `C=CC(C)(O)/C=C/C=C(\C)C(CC1OC1(C)C)OC(=O)/C(C)=C\C` (centres undefined), for which the concentration for total growth inhibition (TGI) with NCI/ADR-RES ovarian, with SF-268 CNS, in the test on HCT-116 colon, in the test on UACC-257 melanoma, in the test with HOP-62 NSCLC and in the test on SK-MEL-2 melanoma was above 100 µM each time. For the same molecule, the TGI in the test on A498 renal, with HT29 colon, with MCF7 breast and in the test with SNB-19 CNS was above 100 µM in each case.
